According to patent US9745581B2, “Methods of treating and diagnosing diseases using agents that regulate the alternative splicing pathway” (Yissum Research Development Company of the Hebrew …, priority 2012, dated 2017):
Entries after “also recorded” stand apart in the source; their conditions may differ.

Legend:
[1] = system: MCF-10A cells; experiment: Cell death induced by constitutively active p38α in MCF-10A cells expressing Mnk2a; type: cell-based, human; conditions: 20 μM SB203580 for 48 hours, FIGS. 4A-B
Source text: (§1) (C-D). […] (*, **, ***p≦0.01n=3).

[2] = system: MCF-10A cells; experiment: Soft agar colony formation of MCF-10A cells co-transduced with Mnk2a and oncogenic Ras; type: cell-based, human; conditions: H-RAS V12, colonies counted 14 days later, FIGS. 4F-G
Procedure: as §1
Anchorage-independent growth: Colony formation in soft agar was assayed as described previously (17). Plates were incubated at 37° C. and 5% CO2. After 10-18 days, colonies were counted from ten different fields in each of two wells for each transductant pool and the average number of colonies per well was calculated. The colonies were stained and photographed under a light microscope at 100× magnification.

[3] = system: p38; conditions: MCF-10A, 1 μM anisomycin, 10 μM SB203580, FIG. 4E
Procedure: (E) MCF-10A cells transduced with retroviruses containing the indicated Mnk2 isoforms or a kinase dead version of Mnk2a (Mnk2aKD) or with isoform specific shRNAs against Mnk2a were treated with 1 μM anisomycin, in the presence or absence of 10 μM SB203580. Cells were lysed and proteins were subjected to Western blot analysis with the indicated antibodies.
Immunoblotting: Cells were lysed in Laemmli buffer and analyzed for total protein concentration as described previously (17). 30 μg of total protein from each cell lysate was separated by SDS-PAGE and transferred to a nitrocellulose membrane. The membranes were blocked, probed with antibodies and detected using enhanced chemiluminescence. Primary antibodies were anti phospho-eIF4E Ser209 (1:1000), eIF4E (1:1000), phospho-p38 (Thr180/Tyr182) (1:1000), phospho-MNK (T197/T202) (1:1000), phospho-MK2 (1:1,000), MK2 (1:1,000), (Cell Signaling Technology). […] Secondary antibodies were HRP-conjugated goat anti-mouse, goat anti-rabbit or donkey anti-goat IgG (H+L) (1:10,000, Jackson Laboratories).

[4] = system: Panc-1 cells; experiment: Anisomycin-induced cell death of Panc-1 cells expressing Mnk2a, with or without p38 inhibitor; type: cell-based, human; conditions: Panc-1, 0.5 μM anisomycin, 20 μM SB203580, FIG. 5J
Procedure: After selection with hygromycin transductants were maintained in growth factor-free medium in suspension for 48 h. Cell death was measured using the trypan blue exclusion assay. (J) Human pancreatic cancer cells Panc-1 were seeded on 96-well plates (6000 cells/well). Following starvation cells were treated with 0.5 μM anisomycin in the presence or absence of 20 μM SB203580. (*, **p≦0.01). (K) MCF-10A cells were transduced as in (I). After selection cells were seeded in 6-well plates. 24 h later cells were serum starved in a growth factor-free medium for 24 h. Following starvation cells were treated with 0.5 M Sorbitol (to induce osmotic shock) and 24 h later were stained with trypan blue (n=2). (L) MCF-10A transduced with the indicated retroviruses encoding for shRNAs against Mnk2a were seeded as in (K). (*, p≦0.01, ** p≦0.05). […] 10 days post selection with hygromycin cells were assessed for colony formation with methylene blue staining. n=3. […]
Survival and apoptosis assays: MCF-10A or Panc-1 cells were transduced with the indicated retroviruses. […] Cells were fixed and stained with methylene blue and the absorbance at 650 nm of the acid-extracted stain was measured on a plate reader (BioRad) and was normalized to cell absorbance at “Time 0”. […] 10 μl of the cell suspension was mixed with 10 μl of 4% trypan blue solution and live/dead cells were counted in Bio-Rad TC-10 Automated Cell Counter. […]

[5] = system: Ras-transformed MCF-10A breast cells; experiment: Colony survival of Ras-transformed MCF-10A cells after PNA incubation; type: cell-based, human; conditions: 0.05 μM PNA for 5 hours, seeded 20 cells/well, colonies counted 14 days later, versus scrambled PNA
Procedure: (§2) FIGS. 36A-C. […] Ras-transformed MCF-10A cells were incubated for 5 hours with 0.05 μM scrambled (non-specific) PNA or MNK2a specific PNA (see the position of the PNA marked in red in the scheme). 24 h later cells were counted and seeded in low density (20 cells/well) in 6-well plates. 14 days later, surviving colonies were counted and photographed.

[6] = system: Mnk2 splicing; experiment: RT-PCR of Mnk2 splicing after PNA treatment; type: cell-based, human; conditions: Ras-transformed MCF-10A cells, FIG. 36C
Procedure: as §2
RT-PCR: Total RNA was extracted with Tri reagent (Sigma) and 2 μg of total RNA was reverse transcribed using the AffinityScript (Stratagene) reverse transcriptase. PCR was performed on 1/10 (2 μl) of the cDNA, in 50 μl reactions containing 0.2 mM dNTP mix, 10×PCR buffer with 15 mM MgCl2 (ABI), 2.5 units of TaqGold (ABI) and 0.2 […]; 5% (v/v) DMSO was included in some reactions. PCR conditions were 95° C. for 5 min, then 33 cycles of 94° C. for 30 s, 57° C. for 30 s and 72° C. for 45 s, followed by 10 min at 72° C. PCR products were separated on 1.5% or 2% agarose gels. Primers are listed herein below.

[7] = system: Mnk1/2; experiment: Western blot of p38-MAPK phosphorylation in MEFs treated with Mnk1/2 kinase inhibitor; type: cell-based, mouse; conditions: CGP 57380 for 4 h, FIG. 5E
Source text: (A) MCF-10A cells were transduced with the indicated retroviruses encoding for Mnk2 isoforms or Mnk2aKD. Total protein from stable pools was extracted and separated on SDS-PAGE and was subjected to Western blot analysis with the indicated antibodies. Numbers represent ratio of p-p38/total p38 normalized to that of pBABE (arbitrarily set at 1)±SD (n=2). (B) MCF-10A cells described in (A) were transduced by H-RAS^V12 and after selection cells were lysed and subjected to Western blot analysis with the indicated antibodies. Numbers representing ratio of p-p38/total p38 were calculated as described in (A) (n=2). (C) Immortal MEFs from Mnk2^−/− mouse were transduced with retrovirus encoding either no mammalian protein (pBABE) or various Mnk2 variants. […] (D) Immortal MEFs from WT, Mnk1^−/− or Mnk2^−/− mice were lysed and analyzed as in (A). (E) Immortal MEFs described in (D) were seeded in 6-well plates. […]
(A) Cell lines from breast immortal or cancer (MCF-7, MDA-MB-231, SUM-149, SUM-159, MDA-MB-468) cell lines were seeded in 6-well plates and 24 h later were lysed and subjected to Western blot analysis with the indicated antibodies. (B-C) Quantitation of p38 and eIF4E phosphorylation levels. […] (G) MCF-10A cells were seeded in 6-well plates, treated and analyzed as in (D). […]

[8] = system: Mnk1/2; experiment: Western blot of p38-MAPK phosphorylation in MCF-10A cells treated with Mnk1/2 kinase inhibitor; type: cell-based, human; conditions: CGP 57380 for 4 h, FIG. 8G
Procedure: (A) Cell lines from breast immortal or cancer (MCF-7, MDA-MB-231, SUM-149, SUM-159, MDA-MB-468) cell lines were seeded in 6-well plates and 24 h later were lysed and subjected to Western blot analysis with the indicated antibodies. (B-C) Quantitation of p38 and eIF4E phosphorylation levels. The level of phosphorylated p38 and eIF4E was normalized to that of their total level. Results are presented as an average±SD (n=2). (D-F) Immortal MEFs from WT (Mnk 1/2 WT), Mnk1^−/− or Mnk2^−/− mice were seeded in 6-well plates. 24 h later cells were either treated with the vehicle (DMSO) or treated with the Mnk1/2 kinase inhibitor, CGP 57380 (CGP) at the indicated concentrations for 4 h, and subjected to Western blot analysis with the indicated antibodies. (G) MCF-10A cells were seeded in 6-well plates, treated and analyzed as in (D). […] C-myc (nuclear) and caspase-2 (cytoplasmic) served as fractionation controls.

[9] = system: Mnk1/2; experiment: Q-RT-PCR of p38α target genes FOS and COX-2 in MCF-10A cells; type: cell-based, human; conditions: serum starved, CGP 57380 for 8-10 h, FIG. 7E
Procedure: (C). RNA from WT MEFs, Mnk2^−/− MEFS and Mnk2^−/− MEFS transduced with Mnk2a was extracted and the levels of FOS and COX-2 were analyzed by Q-RT-PCR. (D). RNA from MCF-10A cells transduced with the indicated Mnk2 isoforms and the indicated Mnk2a mutants was extracted and the levels of FOS and COX-2 were measured as described above. (E). MCF-10A cells were seeded in 10 cm plates. 24 h later, cells were serum starved for an additional 24 h, then treated with Mnk1/2 inhibitor CGP 57380 at the indicated concentrations for 8-10 h. RNA from cells was extracted and the levels of p38α-targets genes; FOS and COX-2 were measured by Q-RT-PCR as described above. (F). MCF-10A cells described in (D) were serum starved for 24 h and then treated with 0.5 μM anisomycin for 24 h and were subjected to trypan-blue exclusion assay (Graph). Bottom panel: cells described in (F) were centrifuged and lysed with Laemmli buffer and proteins were subjected to Western blot analysis. […]
Q-RT-PCR: Total RNA was extracted with Tri reagent (Sigma) and 2 μg of total RNA was reverse transcribed using the AffinityScript (Stratagene) reverse transcriptase. The mRNA levels of FOS, and COX-2 were determined in MCF-10A breast cell lines by performing quantitative PCR with SYBER Green (SYBR® Premix Ex Taq™ # RR041A) using the CFX96 (Bio-Rad) machine. […]

C[S+]([O-])c1ccc(-c2nc(-c3ccncc3)c(-c3ccc(F)cc3)[nH]2)cc1 (stereo not shown) [SB203580]
cell death upon active p38-MAPK transduction in cells expressing Mnk2a [1]: inhibited by SB203580
colony formation in soft agar of cells co-transduced with Mnk2a and Ras [2]: rescued the ability of cells co-transduced with Mnk2a and Ras to form colonies in soft agar
p38 activity measured by phosphorylation of its substrate MK-2 [3]: efficiently inhibited p38 activity
anisomycin-induced cell death of cells expressing Mnk2a [4]: partially rescued; also recorded: rescued Panc-1 cells from Mnk2a-induced sensitivity to anisomycin treatment

PNA: PNA based molecule hybridizing to the bridging region between exon 14b and the preceding intron, preventing Mnk2b generation; likely SEQ ID NO: 157 (AGACTTCCACCCTGTCAG; PNA modified oligonucleotide, pattern not given here)
survival of Ras-transformed MCF-10A breast cells (surviving colonies) [5]: reduces survival; also recorded: decreased the survival
Mnk2 splicing (Mnk2a level) by RT-PCR [6]: can modulate Mnk2 splicing to elevate Mnk2a

Nc1ncnc2n[nH]c(Nc3ccc(F)cc3)c12 [CGP 57380]
p38 phosphorylation in Mnk2-/- MEFs ([7]; Mnk2-/- MEFs, FIG. 8D-F): could not be further reduced
p38-MAPK phosphorylation (T180, Y182) in WT and Mnk1-/- MEFs ([7]; WT and Mnk1-/- MEFs): reduced p38-MAPK phosphorylation
p38-MAPK phosphorylation in MCF-10A cells [8]: reduced p38-MAPK phosphorylation
expression of p38-MAPK target genes (FOS, COX-2) [9]: reduced the expression p38-MAPK target genes
